# According to patent publication US7432225B2, “Selective herbicides based on substituted cyclic keto-enols and safeners” (Bayer CropScience AG, priority 2001, dated 2008):
# How the values were obtained:
# [1] = tested on: Winter barley; assay: Post-emergence test, degree of damage to crop plants; type: in vivo; settings: rated about three weeks after application
# Experimental: (§1) The active compound or safener components are in each case dissolved in a few ml (generally 2-3 ml) of solvent (generally acetone or N,N-dimethyl-formamide), and the solutions are combined and then—if appropriate after addition of an emulsifier—diluted with water to the desired concentration. In general, an aqueous spray liquor was prepared using 0.1% of the additive Renex-36.
# (§2) The test plants are grown under controlled conditions (temperature, light, atmospheric humidity) in a greenhouse. The test plants are sprayed when they have reached a height of 5-15 cm. The concentration of the spray liquor is chosen such that the particular amounts of active compound desired are applied in 500 l of water/ha.
# (§3) After spraying, the pots with the test plants are kept in a greenhouse chamber under controlled conditions (temperature, light, atmospheric humidity) until the test has ended. About three weeks after the application, the degree of damage to the crop plants is rated in % damage in comparison to the development of the untreated control.
# (§4) The figures denote: • 0% no damage (like untreated control) • 100% total destruction/damage
# [2] = tested on: Winter wheat; assay: as above; type: in vivo; settings: rated about three weeks after application
# Experimental: as §1, §2, §3, §4
# [3] = application rate 125 g of ai/ha
# [4] = application rate 250 g of ai/ha
# [5] = safener alone, application rate 50 g of ai/ha
structure (smiles),measurement,setting,value
CCCC1(C)NC(=O)C(c2c(C)cc(C)cc2C)=C1O (stereo not drawn) [Example I-1-a-1],Winter barley observed (% damage),[1]; application rate 110 g of ai/ha,10%
same,Winter barley observed (% damage),[1]; application rate 220 g of ai/ha,25%
same,Winter barley observed (% damage),[1]; application rate 440 g of ai/ha,70%
CCc1cc(Br)cc(C)c1C1=C(O)C2(CCC(C)CC2)NC1=O (stereo not drawn) [Example I-1-a-2],Winter barley observed (% damage),[1]; application rate 60 g of ai/ha,5%
same,Winter barley observed (% damage),[1]; [3],20%
same,Winter barley observed (% damage),[1]; [4],65%
same,Winter wheat observed (% damage),[2]; [3],10%
same,Winter wheat observed (% damage),[2]; [4],40%
CCc1cc(Br)cc(CC)c1C1=C(O)C(C)(C(C)C)NC1=O (stereo not drawn) [Example I-1-a-3],Winter barley observed (% damage),[1]; [4],40%
same,Winter wheat observed (% damage),[2]; [3],10%
same,Winter wheat observed (% damage),[2]; [4],15%
Cc1cc(-c2ccc(Cl)cc2)cc(C)c1C1=C(O)C2(CCOCC2)NC1=O [Example I-1-a-4],Winter barley observed (% damage),[1]; application rate 60 g of ai/ha,5%
same,Winter barley observed (% damage),[1]; [3],35%
same,Winter barley observed (% damage),[1]; [4],35%
"CCOC(=O)C1=NN(c2ccc(Cl)cc2Cl)C(C)(C(=O)OCC)C1 (stereo not drawn) [Mefenpyr-diethyl, diethyl 1-(2,4-dichloro-phenyl)-4,5-dihydro-5-methyl-1H-pyrazole-3,5-dicarboxylate, reference compound]",Winter barley observed (% damage),[1]; [5],0%
same,Winter wheat observed (% damage),[2]; [5],0%
"CCCCCC(C)OC(=O)COc1ccc(Cl)c2cccnc12 (stereo not drawn) [cloquintocet-mexyl, 1-methyl-hexyl 5-chloro-quinolin-8-oxy-acetate, reference compound]",Winter barley observed (% damage),[1]; [5],0%
same,Winter wheat observed (% damage),[2]; [5],0%
